Experimental data from patent US20200405697A1, “Antitumor Agent” (Taiho Pharmaceutical Co., Ltd, priority 2017, published 2020).
pIC50: −log10 of the molar value.

Target: T1, human RNR (histidine tagged human M1 and human M2 proteins) (Homo sapiens, UniProt P23921)
T1 construct: made in house; host or cells: Escherichia coli
T1 sequence (P23921 1-792): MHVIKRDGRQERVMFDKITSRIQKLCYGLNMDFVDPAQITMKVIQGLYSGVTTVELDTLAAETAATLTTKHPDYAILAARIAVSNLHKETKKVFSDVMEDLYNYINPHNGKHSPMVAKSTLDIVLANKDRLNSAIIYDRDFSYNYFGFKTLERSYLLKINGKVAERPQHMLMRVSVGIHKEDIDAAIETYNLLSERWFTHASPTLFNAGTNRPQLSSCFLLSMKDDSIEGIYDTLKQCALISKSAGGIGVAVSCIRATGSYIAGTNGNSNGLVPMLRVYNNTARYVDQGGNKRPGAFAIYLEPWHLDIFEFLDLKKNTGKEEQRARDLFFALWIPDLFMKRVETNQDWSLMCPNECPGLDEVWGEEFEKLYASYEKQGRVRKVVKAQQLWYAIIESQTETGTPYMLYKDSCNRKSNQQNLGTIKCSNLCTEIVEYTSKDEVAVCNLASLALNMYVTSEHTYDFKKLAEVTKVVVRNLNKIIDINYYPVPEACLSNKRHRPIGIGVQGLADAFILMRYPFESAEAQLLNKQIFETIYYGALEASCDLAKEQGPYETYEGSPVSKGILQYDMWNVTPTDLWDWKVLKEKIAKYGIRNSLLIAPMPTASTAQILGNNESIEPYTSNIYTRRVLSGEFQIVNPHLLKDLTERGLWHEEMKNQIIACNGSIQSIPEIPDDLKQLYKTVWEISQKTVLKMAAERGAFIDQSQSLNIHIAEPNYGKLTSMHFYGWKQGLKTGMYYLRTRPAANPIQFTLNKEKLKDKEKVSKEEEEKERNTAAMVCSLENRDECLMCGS
Experiment: Human RNR inhibition effect (dCDP formation from CDP)
Assay type: biochemical
Conditions: 10 μM CDP, 37° C. for 30 minutes, read-out: RNR inhibitory activity IC50
In short: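 His-tagged human M1 (isoform 1) and N-terminal 59-aa-truncated M2 (isoform 2), E. coli-expressed, Ni-purified, preincubated 20 min with compound (1% DMSO). Reaction with 10 μM CDP, 2 mM ATP, 0.24 mM NADPH, 6 mM DTT, 4 mM Mg acetate, 100 mM KCl, 50 mM HEPES pH 7.2, 30 min at 37° C. dCDP formed quantified by reverse-phase HPLC after heat stop.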

| SMILES | pIC50 |
| --- | --- |
| Cc1ccc(F)c([C@@H](C)[C@H](NS(=O)(=O)c2cc(C(=O)N(C)C)ccc2C(N)=O)c2n[nH]c(=O)o2)c1C [Example 37, 3-(N-((1S,2R)-2-(6-fluoro-2,3-dimethylphenyl)-1-(5-oxo-4,5-dihydro-1,3,4-oxadiazol-2-yl)propyl)sulfamoyl)-N1,N1-dimethylterephthalamide] | 6.85 |
| Cc1ccc(F)c([C@@H](C)[C@H](NS(=O)(=O)c2ccc(Cl)c3c2C(O)CCC3)c2n[nH]c(=O)o2)c1C (stereo partly drawn) [Example 240, 4-chloro-N-((1S,2R)-2-(6-fluoro-2,3-dimethylphenyl)-1-(5-oxo-4,5-dihydro-1,3,4-oxadiazol-2-yl)propyl)-8-hydroxy-5,6,7,8-tetrahydronaphthalene-1-sulfonamide] | 6.04 |
| Cc1ccc(F)c([C@@H](C)[C@H](NS(=O)(=O)c2ccccc2C(N)=O)c2n[nH]c(=O)o2)c1C [Example 20, 2-(N-((1S,2R)-2-(6-fluoro-2,3-dimethylphenyl)-1-(5-oxo-4,5-dihydro-1,3,4-oxadiazol-2-yl)propyl)sulfamoyl)benzamide] | 6.59 |
| Cc1ccc(F)c([C@@H](C)[C@H](NS(=O)(=O)c2ccccc2C(=O)NO)c2n[nH]c(=O)o2)c1C [Example 285, 2-(N-((1S,2R)-2-(6-fluoro-2,3-dimethylphenyl)-1-(5-oxo-4,5-dihydro-1,3,4-oxadiazol-2-yl)propyl)sulfamoyl)-N-hydroxybenzamide] | 6.51 |
| CC(=O)OC1(C)CCOc2c(S(=O)(=O)N[C@H](c3n[nH]c(=O)o3)[C@H](C)c3c(F)ccc(Br)c3C)ccc(Cl)c21 (stereo partly shown) [Example 167] | 7.10 |
| C[C@H](c1c(F)ccc2ccccc12)[C@H](NS(=O)(=O)c1ccc(Br)cc1C(N)=O)c1n[nH]c(=O)o1 [Example 15, 5-bromo-2-(N-((1S,2R)-2-(2-fluoronaphthalen-1-yl)-1-(5-oxo-4,5-dihydro-1,3,4-oxadiazol-2-yl)propyl)sulfamoyl)benzamide] | 7.00 |
| COc1cc(Cl)ccc1S(=O)(=O)N[C@H](c1n[nH]c(=O)o1)[C@H](C)c1c(F)ccc(-c2cnn(C(F)F)c2)c1C [Example 304, 4-chloro-N-((1S,2R)-2-(3-(1-(difluoromethyl)-1H-pyrazol-4-yl)-6-fluoro-2-methylphenyl)-1-(5-oxo-4,5-dihydro-1,3,4-oxadiazol-2-yl)propyl)-2-methoxybenzenesulfonamide] | 6.80 |
| Cc1ccc(F)c([C@@H](C)[C@H](NS(=O)(=O)c2ccc(Cl)cc2OC(F)F)c2n[nH]c(=O)o2)c1C [Example 146, 4-chloro-2-(difluoromethoxy)-N-((1S,2R)-2-(6-fluoro-2,3-dimethylphenyl)-1-(5-oxo-4,5-dihydro-1,3,4-oxadiazol-2-yl)propyl)benzenesulfonamide] | 6.59 |
| C[C@H](c1cccc2c1-c1ccccc1C2)[C@H](NS(=O)(=O)c1ccc(Br)cn1)c1n[nH]c(=O)o1 [Example 50, N-((1S,2R)-2-(9H-fluoren-4-yl)-1-(5-oxo-4,5-dihydro-1,3,4-oxadiazol-2-yl)propyl)-5-bromopyridine-2-sulfonamide] | 6.07 |
| Cc1ccc(F)c([C@@H](C)[C@H](NS(=O)(=O)c2ccc3c(c2)C(=O)CCC3)c2n[nH]c(=O)o2)c1C [Example 174, N-((1S,2R)-2-(6-fluoro-2,3-dimethylphenyl)-1-(5-oxo-4,5-dihydro-1,3,4-oxadiazol-2-yl)propyl)-8-oxo-5,6,7,8-tetrahydronaphthalene-2-sulfonamide] | 6.46 |
| Cc1ccc(S(=O)(=O)N[C@H](c2n[nH]c(=O)o2)[C@H](C)c2c(F)ccc(C)c2C)cc1S(=O)(=O)N1CCCCC1 [Example 171, N-((1S,2R)-2-(6-fluoro-2,3-dimethylphenyl)-1-(5-oxo-4,5-dihydro-1,3,4-oxadiazol-2-yl)propyl)-4-methyl-3-(piperidin-1-ylsulfonyl)benzenesulfonamide] | 6.33 |
| Cc1ccc(F)c([C@@H](C)[C@H](NS(=O)(=O)c2ccc(Cl)c(C(=O)N3CCC4(COC4)C3)n2)c2n[nH]c(=O)o2)c1C [Example 155, 5-chloro-N-((1S,2R)-2-(6-fluoro-2,3-dimethylphenyl)-1-(5-oxo-4,5-dihydro-1,3,4-oxadiazol-2-yl)propyl)-6-(2-oxa-6-aza-spiro[3.4]octane-6-carbonyl)pyridine-2-sulfonamide] | 6.89 |
| Cc1ccc(F)c([C@@H](C)[C@H](NS(=O)(=O)c2cccc3c2CCNC3)c2n[nH]c(=O)o2)c1C [Example 281, N-((1S,2R)-2-(6-fluoro-2,3-dimethylphenyl)-1-(5-oxo-4,5-dihydro-1,3,4-oxadiazol-2-yl)propyl)-1,2,3,4-tetrahydroisoquinoline-5-sulfonamide] | 6.12 |
| COc1cc(Cl)ccc1S(=O)(=O)N[C@H](c1n[nH]c(=O)o1)C(C)c1c(F)c(F)cc(C)c1Br (stereo partly drawn) [Example 89, N-((1S)-2-(2-bromo-5,6-difluoro-3-methylphenyl)-1-(5-oxo-4,5-dihydro-1,3,4-oxadiazol-2-yl)propyl)-4-chloro-2-methoxybenzenesulfonamide] | 6.38 |
| Cc1ccc(F)c([C@@H](C)[C@H](NS(=O)(=O)c2ccc(Cl)c(C(=O)N(C)C)n2)c2n[nH]c(=O)o2)c1C [Example 253, 3-chloro-6-(N-((1S,2R)-2-(6-fluoro-2,3-dimethylphenyl)-1-(5-oxo-4,5-dihydro-1,3,4-oxadiazol-2-yl)propyl)sulfamoyl)-N,N-dimethylpicolinamide] | 7.10 |
| C[C@H](c1cccc2c1CCCC2)[C@H](NS(=O)(=O)c1ccc(Cl)cn1)c1n[nH]c(=O)o1 [Example 52] | 6.11 |
| CC(=O)OC(C)c1nc(S(=O)(=O)N[C@H](c2n[nH]c(=O)o2)[C@H](C)c2cccc3c2CCC3)ccc1Cl (stereo partly drawn) [Example 142, 1-(3-chloro-6-(N-((1S,2R)-2-(2,3-dihydro-1H-inden-4-yl)-1-(5-oxo-4,5-dihydro-1,3,4-oxadiazol-2-yl)propyl)sulfamoyl)pyridin-2-yl)ethylacetate] | 6.68 |
| COc1cc(Cl)ccc1S(=O)(=O)N[C@H](c1n[nH]c(=O)o1)[C@H](C)c1c(F)ccc(C)c1C [Example 83, 4-chloro-N-((1S,2R)-2-(6-fluoro-2,3-dimethylphenyl)-1-(5-oxo-4,5-dihydro-1,3,4-oxadiazol-2-yl)propyl)-2-methoxybenzenesulfonamide] | 6.85 |
| C[C@H](c1cccc2c1CCCC2)[C@H](NS(=O)(=O)c1ccc(N)cc1)c1n[nH]c(=O)o1 [Example 266, 4-amino-N-((1S,2R)-1-(5-oxo-4,5-dihydro-1,3,4-oxadiazol-2-yl)-2-(5,6,7,8-tetrahydronaphthalen-1-yl)propyl)benzenesulfonamide] | 6.07 |
| C=C(c1c(F)ccc(C)c1C)[C@H](NS(=O)(=O)c1ccc(Cl)cc1OC)c1n[nH]c(=O)o1 [Example 185, (S)-4-chloro-N-(2-(6-fluoro-2,3-dimethylphenyl)-1-(5-oxo-4,5-dihydro-1,3,4-oxadiazol-2-yl)allyl)-2-methoxybenzensulfonamide] | 6.22 |
| Cc1ccc(F)c([C@@H](C)[C@H](NS(=O)(=O)c2ccc(Cl)c(-c3cnn(C)c3)c2)c2n[nH]c(=O)o2)c1C [Example 325, 4-chloro-N-((1S,2R)-2-(6-fluoro-2,3-dimethylphenyl)-1-(5-oxo-4,5-dihydro-1,3,4-oxadiazol-2-yl)propyl)-3-(1-methyl-1H-pyrazol-4-yl)benzenesulfonamide] | 6.66 |
| COc1cc(Cl)ccc1S(=O)(=O)N[C@H](c1n[nH]c(=O)o1)[C@H](C)c1c(F)ccc2ccccc12 [Example 76, 4-chloro-N-((1S,2R)-2-(2-fluoronaphthalen-1-yl)-1-(5-oxo-4,5-dihydro-1,3,4-oxadiazol-2-yl)propyl)-2-methoxybenzenesulfonamide] | 6.70 |
| Cc1ccc(F)c([C@@H](C)[C@H](NS(=O)(=O)c2ccc(F)c3c2OCCC3O)c2n[nH]c(=O)o2)c1C (single isomer, unassigned) [Example 230A] | 6.92 |
| Cc1ccc(F)c([C@@H](C)[C@H](NS(=O)(=O)c2ccc(Cl)c3c2OCC(=O)N3CCO)c2n[nH]c(=O)o2)c1C [Example 273, 5-chloro-N-((1S,2R)-2-(6-fluoro-2,3-dimethylphenyl)-1-(5-oxo-4,5-dihydro-1,3,4-oxadiazol-2-yl)propyl)-4-(2-hydroxyethyl)-3-oxo-3,4-dihydro-2H-benzo[b][1,4]oxazine-8-sulfonamide] | 6.89 |
| Cc1ccc(F)c([C@@H](C)[C@H](NS(=O)(=O)c2ccc(C(F)(F)F)c3c2OCCC3O)c2n[nH]c(=O)o2)c1C (single isomer, unassigned) [Example 244A] | 7.05 |
